IC50 data for 41 compounds are collected here from EP4624471A1, “PKMYT1 INHIBITOR, PREPARATION METHOD THEREFOR, AND PHARMACEUTICAL COMPOSITION AND USE THEREOF” (Shanghai Qilu Pharmaceutical Research and Development …, priority 2022, dated 2024).

The target of the first assay is T1, PKMYT1 enzyme (Homo sapiens, UniProt Q99640).
T1 construct: purchased Thermo Scientific A33387
T1 sequence (Q99640 1-499): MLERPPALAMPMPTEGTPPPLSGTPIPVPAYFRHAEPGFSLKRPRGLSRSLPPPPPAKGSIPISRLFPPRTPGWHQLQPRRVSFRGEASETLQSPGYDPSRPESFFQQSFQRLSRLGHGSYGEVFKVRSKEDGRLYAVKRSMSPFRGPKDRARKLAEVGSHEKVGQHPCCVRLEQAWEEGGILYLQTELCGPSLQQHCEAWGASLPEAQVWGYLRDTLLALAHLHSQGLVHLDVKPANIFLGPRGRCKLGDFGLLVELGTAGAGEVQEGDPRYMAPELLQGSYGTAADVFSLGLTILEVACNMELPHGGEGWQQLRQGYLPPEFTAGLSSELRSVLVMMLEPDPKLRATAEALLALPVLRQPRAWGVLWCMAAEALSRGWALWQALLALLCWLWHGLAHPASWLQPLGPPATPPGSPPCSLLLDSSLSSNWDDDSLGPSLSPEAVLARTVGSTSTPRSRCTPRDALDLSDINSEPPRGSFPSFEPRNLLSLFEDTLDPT
Nature of the assay: PKMYT1 enzyme inhibition activity, ADP-GLO method. The assay is classed as biochemical. As to conditions: PKMYT1 enzyme 10 nM, ATP 5 µM, 37°C 90 minutes; read-out: ADP-GLO IC50. For orientation: ADP-Glo turns the ADP formed in a reaction into a luminescent signal.
Description: Enzyme inhibition activity of compounds of the present disclosure
The enzyme activity of some of the example compounds was verified using the ADP-GLO method.
PKMYT1 enzyme protein was purchased from Thermo Scientific (Cat. No.: A33387), and the ADP-GLO kit was purchased from Promega (Cat. No.: V9103).
PKMYT1 enzyme activity reaction buffer: 70 mM HEPES, 3 mM MgCl2, 3 mM MnCl2, 50 µg mL-1PEG20000, 3 µM sodium orthovanadate, 1.2 mM DTT.
The reaction plate with the added compounds was centrifuged at 2500 rpm for 1 minute.
The prepared enzyme solution was added to the reaction plate, 5 µL per well, and the final concentration of enzyme was 10 nM. The reaction plate was centrifuged at 1000 rpm for 1 minute. The reaction plate was placed in an incubator at 37°C for 15 minutes.
The prepared ATP substrate solution was added to the reaction plate, 5 µL per well, and the final concentration of ATP was 5 µM. The reaction plate was centrifuged at 1000 rpm for 1 minute. After sealing the plate with aluminum foil, the plate was placed in an incubator and the reaction was carried out at 37°C for 90 minutes.
10 µL of ADP-glo™ reagent was added to stop the kinase reaction and consume unconsumed ATP, leaving only ADP and a very low ATP background. The reaction plate was centrifuged at 1000 rpm for 1 minute. After sealing the plate with aluminum foil, the reaction was carried out at room temperature for 60 minutes.
ADP was converted to ATP by adding 20 µL of kinase detection reagent, and luciferase and luciferin were introduced to detect ATP. The reaction plate was centrifuged at 1000 rpm for 1 minute. After sealing the plate with aluminum foil, the reaction was carried out at room temperature for 60 minutes.
The ADP-GLO luminescence signal values were read by the microplate reader PHERAstar, and the readings were analyzed.
In general, IC50 refers to the concentration that inhibits the measured activity by half. As for `Cc1cc2c(C(N)=O)c(N)n(-c3c(C)c(O)cc(F)c3C)c2c(F)c1C` [Example 70], the IC50 was determined as 34 nM. For `Cc1cc(F)c(O)c(C)c1-n1c(N)c(C(N)=O)c2cc3c(nc21)CCCC3` (racemic) [Example 177], the half-maximal inhibitory concentration (IC50) turned out to be 34.7 nM. Still for that read-out and setting: the same measure for `CCc1nc(C)nc2c1c(C(N)=O)c(N)n2-c1c(C)ccc(O)c1C` (racemic) [Example 66]: 22.5 nM. The same measure, in the same setting: the same measure for `Cc1cc(F)c(O)c(C)c1-n1c(N)c(C(N)=O)c2cc(C(C)C)cnc21` (racemic) [Example 170]: 18.1 nM; for `Cc1ccc(O)c(C)c1-n1c(N)c(C(N)=O)c2cc3c(nc21)OCCO3` (racemic) [Example 188]: 10.5 nM. The same measure, in the same setting: the result for `Cc1ccc(O)c(C)c1-n1c(N)c(C(N)=O)c2cnc(N)nc21` [Example 40, 2,6-Diamino-7-(3-hydroxy-2,6-dimethylphenyl)-7H-pyrrolo[2,3-d]pyrimidine-5-carboxamide] reads 23.6 nM. As for `Cc1ccc(O)c(C)c1-n1c(N)c(C(N)=O)c2cnccc21` [Example 30, 2-Amino-1-(3-hydroxy-2,6-dimethylphenyl)-1H-pyrrolo[3,2-c]pyridine-3-carboxamide], the IC50 was 13.7 nM. The same measure, in the same setting: the result for `Cc1cc2c(C(N)=O)c(N)n(-c3c(C)c(O)c(F)c(F)c3C)c2nc1C` [Example 54] reads 17.5 nM. As to `Cc1cc2c(C(N)=O)c(N)n(-c3c(C)cc(F)c(O)c3C)c2nc1CC(C)C` [Example 151], the IC50 was determined as 20.1 nM. Still for that read-out and setting: the result for `Cc1ccc(O)c(C)c1-n1c(N)c(C(N)=O)c2cnc(C#CC(C)(C)O)nc21` [Example 26, 6-Amino-7-(3-hydroxy-2,6-dimethylphenyl)-2-(3-hydroxy-3-methylbut-1-yn-1-yl)-7H-pyrrolo[2,3-d]pyrimidine-5-carboxamide] reads 11.3 nM; that for `Cc1ccc(O)c(C)c1-n1c(N)c(C(N)=O)c2cc3c(nc21)OC(F)(F)O3` [Example 178], 15.5 nM. On the same count and under the same terms, the result for `Cc1cc(F)c(O)c(C)c1-n1c(N)c(C(N)=O)c2cc(C3=CCOCC3)c(C)nc21` [Example 165] reads 33.4 nM; that for `Cc1cc(F)c(O)c(C)c1-n1c(N)c(C(N)=O)c2cc3ccccc3nc21` [Example 180], 30.5 nM; that for `Cc1ncc2c(C(N)=O)c(N)n(-c3c(C)c(O)cc(F)c3C)c2c1F` (atropisomer, axis not shown) [Example 71.1], 4.29 nM. For `Cc1cc(F)c(O)c(C)c1-n1c(N)c(C(N)=O)c2cc(C3CCOCC3)c(C)nc21` (atropisomer, axis not shown) [Example 163], the IC50 stood at 23.4 nM.

As to `Cc1cc(F)c(O)c(C)c1-n1c(N)c(C(N)=O)c2cc(C(C)(C)O)c(C)nc21` (racemic) [Example 172], the IC50 came out at 16.4 nM. Still for that read-out and setting: the same measure for `Cc1ccc(O)c(C)c1-n1c(N)c(C(N)=O)c2cnc(C#CC3CC3)nc21` [Example 12, 6-Amino-2-(cyclopropylethynyl)-7-(3-hydroxy-2,6-dimethylphenyl)-7H-pyrrolo[2,3-d]pyrimidine-5-carboxamide]: 6.58 nM; for `CCNc1ncc2c(C(N)=O)c(N)n(-c3c(C)ccc(O)c3C)c2n1` [Example 75]: 5.5 nM; for `COc1c(O)ccc(C)c1-n1c(N)c(C(N)=O)c2cc(C)c(C)nc21` [Example 94]: 408 nM. Same read-out and setting: the result for `Cc1ccc(O)c(C)c1-n1c(N)c(C(N)=O)c2cnc(C(F)(F)F)nc21` [Example 4, 6-Amino-7-(3-hydroxy-2,6-dimethylphenyl)-2-(trifluoromethyl)-7H-pyrrolo[2,3-d]pyrimidine-5-carboxamide] reads 25.4 nM; that for `Cc1ccc(O)c(C)c1-n1c(N)c(C(N)=O)c2cnc(Br)nc21` [Example 7, 6-Amino-2-bromo-7-(3-hydroxy-2,6-dimethylphenyl)-7H-pyrrolo[2,3-d]pyrimidine-5-carboxamide], 9.41 nM. Same read-out and setting: the same measure for `Cc1ccc(O)c(C)c1-n1c(N)c(C(N)=O)c2cnc(Cl)nc21` [Example 5, 6-Amino-2-chloro-7-(3-hydroxy-2,6-dimethylphenyl)-7H-pyrrolo[2,3-d]pyrimidine-5-carboxamide]: 8.01 nM; for `Cc1cc2c(C(N)=O)c(N)n(-c3c(C)c(O)cc(F)c3C)c2nc1C` (atropisomer, axis not shown) [Example 22]: 85.5 nM. `CCc1cc2c(C(N)=O)c(N)n(-c3c(C)cc(F)c(O)c3C)c2nc1C` (atropisomer, axis not shown) [Example 143]: the IC50 is 18.2 nM. The same measure, in the same setting: the same measure for `Cc1ccc(O)c(C)c1-n1c(N)c(C(N)=O)c2c3c(c(C)nc21)OCC3` [Example 187]: 43.5 nM; for `Cc1cc(F)c(O)c(C)c1-n1c(N)c(C(N)=O)c2cc(CC(C)C)c(C)nc21` (atropisomer, axis not shown) [Example 166.2]: 3.78 nM. Same read-out and setting: the same measure for `COc1ncc2c(C(N)=O)c(N)n(-c3c(C)ccc(O)c3C)c2n1` [Example 46, 6-Amino-7-(3-hydroxy-2,6-dimethylphenyl)-2-methoxy-7H-pyrrolo[2,3-d]pyrimidine-5-carboxamide]: 43.6 nM; for `Cc1ccc(O)c(C)c1-n1c(N)c(C(N)=O)c2cnc(N(C)C)nc21` [Example 36, 6-Amino-2-(dimethylamino)-7-(3-hydroxy-2,6-dimethylphenyl)-7H-pyrrolo[2,3-d]pyrimidine-5-carboxamide]: 17.4 nM; for `COC(C)(C)c1cc2c(C(N)=O)c(N)n(-c3c(C)cc(F)c(O)c3C)c2nc1C` [Example 171]: 26.8 nM. Same read-out and setting: the same measure for `Cc1cc2c(C(N)=O)c(N)n(-c3c(C)c(O)c(Cl)c(F)c3C)c2nc1C` [Example 44, 2-Amino-1-(4-chloro-3-fluoro-5-hydroxy-2,6-dimethylphenyl)-5,6-dimethyl-1H-pyrrolo[2,3-b]pyridine-3-carboxamide]: 11.8 nM; for `Cc1cc(F)c(O)c(C)c1-n1c(N)c(C(N)=O)c2cc(CC(C)C)cnc21` [Example 147]: 13.6 nM. Regarding `Cc1ccc(O)c(C)c1-n1c(N)c(C(N)=O)c2cnc(-c3ccc(F)cc3)nc21` [Example 64], the IC50 came out at 15.7 nM. Same read-out and setting: the same measure for `Cc1c(O)cc(F)c(C)c1-n1c(N)c(C(N)=O)c2cc(C#N)cnc21` [Example 98]: 8.11 nM. Same read-out and setting: the same measure for `CCc1nc(C)nc2c1c(C(N)=O)c(N)n2-c1c(C)ccc(O)c1C` (atropisomer, axis not shown) [Example 66.1]: 16.5 nM; for `Cc1ccc(O)c(C)c1-n1c(N)c(C(N)=O)c2cnc(NCC(F)F)nc21` [Example 77]: 20.2 nM; for `Cc1c(O)cc(F)c(C)c1-n1c(N)c(C(N)=O)c2cc(F)cnc21` [Example 82]: 5.43 nM.

The same assay, now with this note: read-out: ADP-GLO IC50; PKMYT1 enzyme 10 nM, ATP 5 µM, 37°C 90 minutes.
In the case of `Cc1nc(C)c2c(C(N)=O)c(N)n(-c3c(C)ccc(O)c3C)c2n1` (atropisomer, axis not shown) [Example 19.2], the IC50 was 9.55 nM. Same read-out and setting: the same measure for `Cc1ccc(O)c(C)c1-n1c(N)c(C(N)=O)c2cnc(CC(C)C)nc21` (atropisomer, axis not shown) [Example 57.1]: 15.1 nM; for `Cc1ccc(O)c(C)c1-n1c(N)c(C(N)=O)c2cc3c(nc21)CCO3` (atropisomer, axis not shown) [Example 190.2]: 2.22 nM.

Take `Cc1ccc(O)c(C)c1-n1c(N)c(C(N)=O)c2cnc(/C=C/C3CC3)nc21` [Example 78]: the concentration for half-maximal inhibition (IC50) came out at 8.23 nM. `Cc1ccc(O)c(C)c1-n1c(N)c(C(N)=O)c2cc3c(nc21)CCO3` (racemic) [Example 190]: the IC50 worked out at 4.93 nM.
